From patent US10968193B2, “Antidiabetic bicyclic compounds” (Merck Sharp & Dohme Corp., priority 2014, dated 2021)

Molecular target: T1, human GPR40 (Homo sapiens, UniProt O14842)
T1 construct: expressed in transfected cells; host or cells: HEK cells stably expressing the aequorin reporter
Experiment: Inositol Phosphate Turnover (IP1) Assay 3
Format: cell-based
Conditions: HEK cells stably expressing human GPR40
Procedure: Human and mouse GPR40 stable cell-lines were generated in CHO cells stably expressing NFAT BLA (Beta-lactamase). A human GPR40 stable cell-line was generated in HEK cells stably expressing the aequorin expressing reporter. The expression plasmids were transfected using lipofectamine (Life Technologies) following manufacturer's instructions. Stable cell-lines were generated following drug selection.
Inositol Phosphate Turnover (IP1) Assay 3:
The assay was performed in 384-well format. HEK cells stably expressing human GPR40 were plated at 7500 cells per well in growth medium (DMEM/10% fetal calf serum). Cell plates were then incubated 16 hours at 37 degrees in a 5% CO2 incubator.
Measurement of Inositol Phosphate Turnover (IP) was performed using the CisBio IP-One kit (Part number 62IPAPEB). After the 16 hour incubation, the growth media was removed by centrifugation using the BlueWasher (AusWasher GUI Ver. v1.0.1.8) Protocol #21—“Light Dry” and 10 ul of stimulation buffer (prepared as described in the kit) was added to each well. In a separate plate, compounds were diluted in DMSO (200-fold over the final concentration in the assay well) and 50 nl was acoustically transferred to the appropriate well in the assay cell plate. The plates were then incubated for 60 minutes at 37 degrees in a 5% CO2 incubator. 10 ul of detection buffer (also prepared as described in the IP-One kit) was added to each well and the plates were incubated at rt for 60 minutes in the dark. The plates were then read in a Perkin Elmer EnVision or equivalent reader able to measure FRET. Fluorescent ratio of emission at 665 and 620 nm was then converted to IP1 concentration by back calculating from an IP1 standard curve prepared at the time of the assay. Data is normalized to % activity using a reference compound and EC50s determined using a standard 4-parameter fit.

T1 sequence (O14842 whole entry): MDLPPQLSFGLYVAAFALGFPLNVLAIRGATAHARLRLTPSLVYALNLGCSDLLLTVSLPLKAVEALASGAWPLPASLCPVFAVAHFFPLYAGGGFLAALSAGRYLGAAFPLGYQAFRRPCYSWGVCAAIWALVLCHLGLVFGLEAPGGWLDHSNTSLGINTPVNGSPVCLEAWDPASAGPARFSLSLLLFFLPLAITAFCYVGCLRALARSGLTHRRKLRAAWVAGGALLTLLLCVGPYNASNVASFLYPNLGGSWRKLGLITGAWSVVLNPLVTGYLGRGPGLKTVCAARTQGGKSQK

Row | EC50 [nM] | Compound
1 | 0.16 | COc1cc(-c2ccc(C3CCc4ccc([C@H](C5CC5)[C@H](C)C(=O)O)cc4O3)c(CN3CCCCC3(C)C)c2)c(F)cn1 (mixture of isomers) [Example 128]
2 | 2.9 | CCN(CC)Cc1cc(C2CCc3ccc([C@H](C4CC4)[C@H](C)C(=O)O)cc3O2)ccc1-c1cc(OC)ncc1C#N (mixture of isomers) [Example 197]
3 | 0.06 | COc1cc(-c2ccc(C3CCc4ccc([C@H](C5CCC5)[C@H](C)C(=O)O)cc4O3)cc2CN2[C@H](C)CC[C@H]2C)c(F)cn1 (single isomer, unassigned) [Example 96]
4 | 0.19 | COc1cc(-c2ccc(C3CCc4ccc([C@H](C5CCC5)[C@H](C)C(=O)O)cc4O3)cc2CN2[C@H](C)CC[C@H]2C)c(F)cn1 (single isomer, unassigned) [Example 97]
5 | 0.09 | CCN(CC)Cc1cc(C2CCc3ccc([C@H](C4CCC4)[C@H](C)C(=O)O)cc3O2)ccc1-c1cc(OC)ncc1F (single isomer, unassigned) [Example 98]
6 | 0.18 | CCN(CC)Cc1cc(C2CCc3ccc([C@H](C4CCC4)[C@H](C)C(=O)O)cc3O2)ccc1-c1cc(OC)ncc1F (single isomer, unassigned) [Example 99]
7 | 0.14 | COc1cc(-c2ccc(C3CCc4ccc([C@H](C5CCC5)[C@H](C)C(=O)O)cc4O3)cc2CN2CCCC2C)c(F)cn1 (single isomer, unassigned) [Example 100]
8 | 0.25 | COc1cc(-c2ccc(C3CCc4ccc([C@H](C5CCC5)[C@H](C)C(=O)O)cc4O3)cc2CN2CCCC2C)c(F)cn1 (single isomer, unassigned) [Example 101]
9 | 1.1 | COc1cc(-c2ccc(C3CCc4ccc([C@H](C5CCC5)[C@H](C)C(=O)O)cc4O3)cc2CN2CCCCC2)c(F)cn1 (single isomer, unassigned) [Example 104]
10 | 0.1 | COc1cc(-c2ccc(C3CCc4ccc([C@H](C5CCC5)[C@H](C)C(=O)O)cc4O3)cc2CN2CCCCC2)c(F)cn1 (single isomer, unassigned) [Example 105]
11 | 0.2 | COc1cc(-c2ccc(C3CCc4ccc([C@H](C5CCC5)[C@H](C)C(=O)O)cc4O3)cc2CN2CCCCC23CC3)c(F)cn1 (single isomer, unassigned) [Example 106]
12 | 0.1 | COc1cc(-c2ccc(C3CCc4ccc([C@H](C5CCC5)[C@H](C)C(=O)O)cc4O3)cc2CN2CCCCC23CC3)c(F)cn1 (single isomer, unassigned) [Example 107]
13 | 0.1 | COc1cc(-c2ccc(C3CCc4ccc([C@H](C5CCC5)[C@H](C)C(=O)O)cc4O3)cc2CN2CCCC2(C)C)c(F)cn1 (single isomer, unassigned) [Example 108]
14 | 0.1 | COc1cc(-c2ccc(C3CCc4ccc([C@H](C5CCC5)[C@H](C)C(=O)O)cc4O3)cc2CN2CCCC2(C)C)c(F)cn1 (single isomer, unassigned) [Example 109]

The next lines start with the molecule.

Row | Compound | EC50 [nM]
15 | COc1cc(-c2ccc(C3CCc4ccc([C@H](C5CC5)[C@H](C)C(=O)O)cc4O3)c(CN3CCCC3(C)C)c2)ccn1 (mixture of isomers) [Example 111, (2S,3R)-3-cyclopropyl-3-(2-(2-((2,2-dimethylpyrrolidin-1-yl)methyl)-4-(2-methoxypyridin-4-yl)phenyl)chroman-7-yl)-2-methylpropanoic acid] | 0.7
16 | CCN(Cc1cc(-c2ccnc(OC)c2)ccc1C1CCc2ccc([C@H](C3CC3)[C@H](C)C(=O)O)cc2O1)C(C)C (mixture of isomers) [Example 113] | 0.7
17 | COc1cc(-c2ccc(C3CCc4ccc([C@H](C5CC5)[C@H](C)C(=O)O)cc4O3)c(CN(C)C(C)(C)C)c2)ccn1 (mixture of isomers) [Example 114] | 5
18 | COc1cc(-c2ccc(C3CCc4ccc([C@H](C5CC5)[C@H](C)C(=O)O)cc4O3)c(CN(C(C)C)C(C)C)c2)ccn1 (mixture of isomers) [Example 115] | 0.1
19 | COc1cc(-c2ccc(C3CCc4ccc([C@H](C5CC5)[C@H](C)C(=O)O)cc4O3)c(CN3CCCCC3(C)C)c2)ccn1 (mixture of isomers) [Example 117] | 0.6
20 | COc1cc(-c2ccc(C3CCc4ccc([C@H](C5CC5)[C@H](C)C(=O)O)cc4O3)c(CN3CCCC[C@H]3C)c2)ccn1 (mixture of isomers) [Example 120] | 0.7
21 | CCN(Cc1cc(-c2cc(OC)ncc2F)ccc1C1CCc2ccc([C@H](C3CC3)[C@H](C)C(=O)O)cc2O1)C(C)C (mixture of isomers) [Example 124] | 0.3
22 | COc1cc(-c2ccc(C3CCc4ccc([C@H](C5CC5)[C@H](C)C(=O)O)cc4O3)c(CN(C)C(C)(C)C)c2)c(F)cn1 (mixture of isomers) [Example 125] | 2.2
23 | COc1cc(-c2ccc(C3CCc4ccc([C@H](C5CC5)[C@H](C)C(=O)O)cc4O3)c(CN(C(C)C)C(C)C)c2)c(F)cn1 (mixture of isomers) [Example 126] | 0.1
24 | CCOc1cc(-c2ccc(C3CCc4ccc([C@H](C5CC5)[C@H](C)C(=O)O)cc4O3)c(CN(C)C(C)(C)C)c2)c(F)cn1 (mixture of isomers) [Example 132] | 4.8
25 | COCC(c1cc([C@H]2CCc3ccc([C@H](C4CC4)[C@H](C)C(=O)O)cc3O2)ccc1-c1ccnc(OC)c1)N1CCCC1 (mixture of isomers) [Example 179, (2S, 3R)-3-cyclopropyl-3-((2R)-2-(3-(2-methoxy-1-(pyrrolidin-1-yl)ethyl)-4-(2-methoxypyridin-4-yl)phenyl)chroman-7-yl)-2-methylpropanoic acid] | 17
26 | CCN(CC)Cc1cc(C2CCc3ccc([C@H](C4CC4)[C@H](C)C(=O)O)cc3O2)ncc1-c1cc(OC)ncc1F (single isomer, unassigned) [Example 86] | 1.4
27 | CCN(CC)Cc1cc(C2CCc3ccc([C@H](C4CC4)[C@H](C)C(=O)O)cc3O2)ncc1-c1cc(OC)ncc1F (single isomer, unassigned) [Example 87] | 6.6
28 | CCN(CC)Cc1nc(C2CCc3ccc([C@H](C4CC4)[C@H](C)C(=O)O)cc3O2)ccc1-c1cc(OC)ncc1F (single isomer, unassigned) [Example 88] | 6.7
29 | CCN(CC)Cc1nc(C2CCc3ccc([C@H](C4CC4)[C@H](C)C(=O)O)cc3O2)ccc1-c1cc(OC)ncc1F (single isomer, unassigned) [Example 89] | 0.9
30 | COc1cc(-c2ccc(C3CCc4ccc([C@H](C5CC5)[C@H](C)C(=O)O)cc4O3)c(CN3CCCC3(C)C)c2)ccn1 (single isomer, unassigned) [Example 111a] | 3.2
31 | COc1cc(-c2ccc(C3CCc4ccc([C@H](C5CC5)[C@H](C)C(=O)O)cc4O3)c(CN3CCCC3(C)C)c2)ccn1 (single isomer, unassigned) [Example 111b] | 0.4
32 | COc1cc(-c2ccc(C3CCc4ccc([C@H](C5CC5)[C@H](C)C(=O)O)cc4O3)c(CN3CCCC3)c2)ccn1 (single isomer, unassigned) [Example 112a] | 2.3
33 | COc1cc(-c2ccc(C3CCc4ccc([C@H](C5CC5)[C@H](C)C(=O)O)cc4O3)c(CN3CCCC3)c2)ccn1 (single isomer, unassigned) [Example 112b] | 273
34 | CCN(Cc1cc(-c2ccnc(OC)c2)ccc1C1CCc2ccc([C@H](C3CC3)[C@H](C)C(=O)O)cc2O1)C(C)C (single isomer, unassigned) [Example 113a] | 0.4
